What was measured:
[1] = system: Strep. faecium Leo id. E119(P); assay: MIC, agar diffusion method (European Pharmacopoeia 3rd Ed.); assay type: cell-based; conditions: Penicillin resistant
Experimental: (§1) The antibacterial activity of some of these compounds relative to fusidic acid appears from Table 2 showing MIC values for compounds of the invention. The method used is recommended by the European Pharmacopoeia 3rd Ed. (1997) for testing the potency of antibiotics. It is an agar diffusion method where the same volume of the tested solution is added to cavities in agar. The inhibition zones are a function of the concentration of the fusidic acid analogue used. All assays are run with fusidic acid (1) as the reference substance. The results in Table 2 differ from those of Table 1 due to the different experimental methods used.

S. aureus Leoid CJ234(R) = assay: as above; assay type: cell-based; conditions: MRSA and Rifampicin resistant
Experimental: as §1

[2] = system: Strep. sp. Gr.B Leo id. EF6; assay: as above; assay type: cell-based
Experimental: as §1

[3] = system: Strep. epidermis A. ATCC12228; assay: as above; assay type: cell-based
Experimental: as §1

S. aureus Leo id. CJ232 = assay: as above; assay type: cell-based; conditions: S. aureus Leo id. CJ232, MRSA
Experimental: as §1

S. aureus ATCC2977 = assay: as above; assay type: cell-based
Experimental: as §1

[4] = system: Strep. faecalis ATCC10541; assay: as above; assay type: cell-based
Experimental: as §1

S. aureus ATCC6538P = assay: as above; assay type: cell-based
Experimental: as §1

[5] = relative to fusidic acid; reduction of C-24/C-25 and C-17/C-20 double bonds; cited from earlier work

Molecule | MIC values (concentrations in μg/ml required for 90% inhibition) [1] | MIC values (concentrations in μg/ml required for 90% inhibition) (S. aureus Leoid CJ234(R)) | MIC values (concentrations in μg/ml required for 90% inhibition) [2] | MIC values (concentrations in μg/ml required for 90% inhibition) [3] | MIC values (concentrations in μg/ml required for 90% inhibition) (S. aureus Leo id. CJ232) | MIC values (concentrations in μg/ml required for 90% inhibition) (S. aureus ATCC2977) | MIC values (concentrations in μg/ml required for 90% inhibition) [4] | MIC values (concentrations in μg/ml required for 90% inhibition) (S. aureus ATCC6538P) | antibacterial activity [5]
CCC(=O)OC1CC2(C)C(CC(O)C3C4(C)CCC(O)C(C)C4CCC32C)C1C(CCC=C(C)C)C(=O)O [Compound 105, 16-Deacetoxy-16β-propionyloxy-17(S),20(S)-dihydrofusidic Acid] | 3.9 µg/mL | 0.063 µg/mL | >64 µg/mL | 0.08 µg/mL | 0.24 µg/mL | 0.19 µg/mL | >64 µg/mL | 0.22 µg/mL | 
CC(=O)O[C@H]1C[C@@]2(C)[C@@H](C[C@@H](O)[C@H]3[C@@]4(C)CC[C@@H](O)[C@@H](C)[C@@H]4CC[C@@]32C)[C@H]1[C@H](CCCC(C)C)C(=O)O [Compound 102, 17(S),20(S),24,25-Tetrahydrofusidic Acid] | 3.9 µg/mL | 0.009 µg/mL | 3.4 µg/mL | 0.015 µg/mL | 0.12 µg/mL | 0.02 µg/mL | MIC>64 μg/ml | 0.016 µg/mL | 
CCO[C@H]1C[C@@]2(C)[C@@H](C[C@@H](O)[C@H]3[C@@]4(C)CC[C@@H](O)[C@@H](C)[C@@H]4CC[C@@]32C)[C@H]1[C@H](CCC=C(C)C)C(=O)O [Compound 123, 16-Deacetoxy-16β-ethoxy-17(S),20(S)-dihydrofusidic Acid] | 16 µg/mL | 0.007 µg/mL | 16 µg/mL | 0.5 µg/mL | 0.005 µg/mL | 0.02 µg/mL | 16 µg/mL | 0.02 µg/mL | 
tetrahydrofusidic acid |  |  |  |  |  |  |  |  | almost complete loss of activity
